Results from patent US20260317370A1, “METHOD OF DEPROTECTING AT LEAST ONE D-AMINO ACID AND/OR D-AMINO ACID DERIVATIVE PROTECTED FUNCTIONAL GROUP” (Martin-Luther-Universität Halle-Wittenberg, priority 2023, published 2026).
Where a name gives a salt, the structure may show the parent alone.

Assays:
Test in all cases: additive influence on activity of D-stereospecific hydrolytic enzyme
Assay type in all cases: biochemical
Conditions in all cases: role: inhibitor (additive); substrate Abz-AAfFAAK(DNP)-OH
[1] = target: T1, D-stereospecific hydrolytic enzyme, SEQ ID No. 4 (Bacillus cereus, UniProt P94288)
T1 construct: initiator Met form is 4A; E. coli, purified by ion exchange and gel filtration
T1 sequence (P94288 entry or part of it): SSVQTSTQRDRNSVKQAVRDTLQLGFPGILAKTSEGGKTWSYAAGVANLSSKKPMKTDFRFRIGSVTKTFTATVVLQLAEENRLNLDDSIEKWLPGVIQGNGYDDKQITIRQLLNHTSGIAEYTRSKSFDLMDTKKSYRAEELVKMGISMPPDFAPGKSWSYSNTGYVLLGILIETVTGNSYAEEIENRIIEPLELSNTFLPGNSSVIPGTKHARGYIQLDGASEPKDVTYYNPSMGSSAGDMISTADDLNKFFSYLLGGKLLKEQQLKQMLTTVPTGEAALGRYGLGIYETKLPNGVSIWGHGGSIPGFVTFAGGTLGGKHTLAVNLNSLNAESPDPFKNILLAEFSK
Experimental: (§1) In further experiments, the hydrolysis reaction using D-stereospecific hydrolytic enzymes with SEQ ID No. 4, No. 6, No. 7, No. 8, No. 9 was carried out with internally quenched fluorogenic substrates (IQFS) (Abz-AAX/xaaFAAK(DNP)-OH) (Abz=2-aminobenzoic acid, DNP=2,4-dinitrophenol). By cleavage of the IQFS, a fluorescence signal is released and can be monitored by continuous fluorescence measurement (0.1 M NaPi, pH 8.0, 1% DMSO (v/v), 5-1000 nM enzyme, excitation wavelength 320 nm emission wavelength 420 nm, reaction volume 100 μl, 96-well micro titer plate, time scale 2 h). The respective model reaction is shown below (Formula 5). In Formula 5 DHy represents the respective D-stereospecific hydrolytic enzyme.
(§2) In addition, experiments were performed to investigate the effect of adding different additives in different concentrations based on the reaction mixture on the activity of D-stereospecific hydrolytic enzymes. The concentration of the respective additive was varied between 0 to 2.5 M. As additives, urea, guanidinium hydrochloride, NaCl and ß-mercaptoethanol (ß-ME) were used. The additives were added to the reaction mixture including the D-stereospecific hydrolytic enzyme and the peptide Abz-AAfFAAK(DNP)-OH. As D-stereospecific hydrolytic enzymes the D-stereospecific hydrolytic enzymes with SEQ ID No. 4, No. 6, No. 7, No. 8 and No. 9 were used.
(§3) The relative activity, in this case, is calculated by dividing the activity when adding an additive with a different concentration by the maximum activity of the respective D-stereospecific enzyme.
(§4) In Table 11, the concentration of additive (M) based on the reaction mixture at which 50% (*) or 10% (**) of the relative specific activity of the respective enzyme is still present is indicated.

[2] = target: T2, D-stereospecific hydrolytic enzyme, SEQ ID No. 6 (Bacillus thuringiensis, UniProt A0A1W6WPG2)
T2 construct: E. coli, purified; crystallized, P21
T2 sequence (A0A1W6WPG2 40-385): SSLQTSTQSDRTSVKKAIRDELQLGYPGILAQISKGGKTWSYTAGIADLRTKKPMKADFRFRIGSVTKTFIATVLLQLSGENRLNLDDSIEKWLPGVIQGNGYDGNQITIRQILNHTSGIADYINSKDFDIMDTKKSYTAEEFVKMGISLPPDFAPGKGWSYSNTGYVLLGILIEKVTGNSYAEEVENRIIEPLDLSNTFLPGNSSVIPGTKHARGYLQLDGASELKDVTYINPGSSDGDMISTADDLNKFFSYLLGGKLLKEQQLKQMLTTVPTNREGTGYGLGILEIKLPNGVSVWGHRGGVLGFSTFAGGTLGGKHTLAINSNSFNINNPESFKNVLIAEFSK
Experimental: as §1, §2, §3, §4

[3] = target: T3, D-stereospecific hydrolytic enzyme, SEQ ID No. 7 (Bacillus thuringiensis, UniProt A0A1W6WPK6)
T3 construct: E. coli, purified
T3 sequence (A0A1W6WPK6 41-389): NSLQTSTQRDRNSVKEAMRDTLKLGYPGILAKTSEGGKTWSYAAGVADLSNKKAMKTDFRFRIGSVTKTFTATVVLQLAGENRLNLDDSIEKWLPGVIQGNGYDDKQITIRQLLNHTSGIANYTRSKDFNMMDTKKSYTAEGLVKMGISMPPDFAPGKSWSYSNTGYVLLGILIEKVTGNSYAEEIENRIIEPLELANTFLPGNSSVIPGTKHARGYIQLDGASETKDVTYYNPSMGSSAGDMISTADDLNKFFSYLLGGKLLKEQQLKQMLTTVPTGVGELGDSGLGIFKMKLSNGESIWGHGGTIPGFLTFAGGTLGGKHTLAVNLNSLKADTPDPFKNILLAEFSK
Experimental: as §1, §2, §3, §4

[4] = target: T4, D-stereospecific hydrolytic enzyme, SEQ ID No. 8 (Bacillus thuringiensis, UniProt A0A1W6WYC6)
T4 construct: E. coli, purified
T4 sequence (A0A1W6WYC6 40-389): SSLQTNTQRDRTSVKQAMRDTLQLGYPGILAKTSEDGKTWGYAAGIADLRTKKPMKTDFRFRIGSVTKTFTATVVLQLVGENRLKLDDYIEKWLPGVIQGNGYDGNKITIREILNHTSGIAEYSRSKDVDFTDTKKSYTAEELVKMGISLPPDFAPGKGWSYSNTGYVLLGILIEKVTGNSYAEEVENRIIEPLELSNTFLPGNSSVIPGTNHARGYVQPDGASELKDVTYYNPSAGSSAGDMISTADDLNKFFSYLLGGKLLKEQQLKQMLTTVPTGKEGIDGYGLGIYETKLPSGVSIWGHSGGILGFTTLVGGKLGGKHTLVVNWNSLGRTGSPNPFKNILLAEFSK
Experimental: as §1, §2, §3, §4

[5] = target: T5, D-stereospecific hydrolytic enzyme, SEQ ID No. 9 (Bacillus thuringiensis, UniProt A0A1W6WP87)
T5 construct: E. coli, purified
T5 sequence (A0A1W6WP87 38-388): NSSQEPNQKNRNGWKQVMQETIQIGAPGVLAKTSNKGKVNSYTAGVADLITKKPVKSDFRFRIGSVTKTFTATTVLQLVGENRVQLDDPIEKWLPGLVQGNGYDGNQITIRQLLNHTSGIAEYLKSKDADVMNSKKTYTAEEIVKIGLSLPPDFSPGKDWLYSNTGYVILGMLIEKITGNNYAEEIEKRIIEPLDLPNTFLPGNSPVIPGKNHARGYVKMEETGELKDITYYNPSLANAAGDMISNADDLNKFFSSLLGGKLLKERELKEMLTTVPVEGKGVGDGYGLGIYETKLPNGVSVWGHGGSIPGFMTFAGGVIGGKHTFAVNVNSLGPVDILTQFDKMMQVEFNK
Experimental: as §1, §2, §3, §4

Row | SMILES | concentration of additive at which 10% of the relative specific activity is still present [1] | concentration of additive at which 10% of the relative specific activity is still present [2] | concentration of additive at which 10% of the relative specific activity is still present [3] | concentration of additive at which 10% of the relative specific activity is still present [4] | concentration of additive at which 10% of the relative specific activity is still present [5]
1 | N=C(N)N [GdmCl, guanidinium hydrochloride] | 1.00 M | 0.50 M | 0.50 M | 1.00 M | 1.25 M
2 | NC(N)=O [urea] | 1.25 M | 2.00 M | 1.50 M | 2.00 M | 2.25 M
3 | OCCS [β-ME, ß-mercaptoethanol] | <0.25 M | 0.50 M | 0.50 M | 0.50 M | 0.50 M
